{
  "source": "ChEMBL document CHEMBL1201862",
  "about": "“PubChem BioAssay data set” (2004)",
  "experiment_in_all_cases": "NCI-60 cell line screen, 48 h",
  "key": {"Malme-3M": {"test_system": "Malme-3M"}, "SR": {"test_system": "SR"}, "UACC-62": {"test_system": "UACC-62"}, "786-0": {"test_system": "786-0"}, "UO-31": {"test_system": "UO-31"}, "BT-549": {"test_system": "BT-549"}, "TK-10": {"test_system": "TK-10"}, "DU-145": {"test_system": "DU-145"}, "SK-OV-3": {"test_system": "SK-OV-3"}, "HT-29": {"test_system": "HT-29"}, "MDA-MB-435": {"test_system": "MDA-MB-435"}, "MCF7": {"test_system": "MCF7"}, "SNB-19": {"test_system": "SNB-19"}, "MDA-N": {"test_system": "MDA-N"}, "SK-MEL-5": {"test_system": "SK-MEL-5"}, "HCT-15": {"test_system": "HCT-15"}, "OVCAR-5": {"test_system": "OVCAR-5"}, "OVCAR-3": {"test_system": "OVCAR-3"}, "SK-MEL-28": {"test_system": "SK-MEL-28"}, "IGROV-1": {"test_system": "IGROV-1"}, "NCI-H522": {"test_system": "NCI-H522"}, "NCI-H23": {"test_system": "NCI-H23"}, "MDA-MB-231": {"test_system": "MDA-MB-231"}, "A549": {"test_system": "A549"}, "T47D": {"test_system": "T47D"}, "COLO 205": {"test_system": "COLO 205"}, "CCRF-CEM": {"test_system": "CCRF-CEM"}, "MOLT-4": {"test_system": "MOLT-4"}, "OVCAR-8": {"test_system": "OVCAR-8"}, "SK-MEL-2": {"test_system": "SK-MEL-2"}, "SW-620": {"test_system": "SW-620"}, "HCT-116": {"test_system": "HCT-116"}, "HCC 2998": {"test_system": "HCC 2998"}, "SF-539": {"test_system": "SF-539"}, "HL-60": {"test_system": "HL-60"}, "M14": {"test_system": "M14"}, "RXF 393": {"test_system": "RXF 393"}, "UACC-257": {"test_system": "UACC-257"}, "NCI-H460": {"test_system": "NCI-H460"}, "PC-3": {"test_system": "PC-3"}, "HOP-92": {"test_system": "HOP-92"}, "U-251": {"test_system": "U-251"}, "KM12": {"test_system": "KM12"}, "OVCAR-4": {"test_system": "OVCAR-4"}, "SF-295": {"test_system": "SF-295"}, "ACHN": {"test_system": "ACHN"}, "Hs-578T": {"test_system": "Hs-578T"}, "SN12C": {"test_system": "SN12C"}, "RPMI-8226": {"test_system": "RPMI-8226"}, "HOP-62": {"test_system": "HOP-62"}, "SF-268": {"test_system": "SF-268"}, "EKVX": {"test_system": "EKVX"}, "NCI/ADR-RES": {"test_system": "NCI/ADR-RES"}, "NCI-H226": {"test_system": "NCI-H226"}, "LOX IMVI": {"test_system": "LOX IMVI"}, "A498": {"test_system": "A498"}},
  "note": "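Each compound was tested at five concentrations against cells in 96-well plates for 48 hours. GI50: concentration for 50% inhibition of growth.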 The source made the active and inactive calls. Cut-off read from the data, not from the text of the source: active = GI50 up to about 1.1 µM and inactive = higher.",
  "data": [
    {"smiles": "CC[C@H]1CN(C)[C@H]2Cc3c([nH]c4ccccc34)C(=O)C[C@H]1C2C(=O)OC", "note": "(stereo partly specified)", "values": [
      {"measurement": "GI50", "setting": "Malme-3M", "value": "> 100 µM (inactive)"},
      {"measurement": "GI50", "setting": "SR", "value": "> 100 µM (inactive)"},
      {"measurement": "GI50", "setting": "UACC-62", "value": "> 100 µM (inactive)"},
      {"measurement": "GI50", "setting": "786-0", "value": "> 100 µM (inactive)"},
      {"measurement": "GI50", "setting": "UO-31", "value": "> 100 µM (inactive)"},
      {"measurement": "GI50", "setting": "BT-549", "value": "> 100 µM (inactive)"},
      {"measurement": "GI50", "setting": "TK-10", "value": "> 100 µM (inactive)"},
      {"measurement": "GI50", "setting": "DU-145", "value": "> 100 µM (inactive)"},
      {"measurement": "GI50", "setting": "SK-OV-3", "value": "> 100 µM (inactive)"},
      {"measurement": "GI50", "setting": "HT-29", "value": "> 100 µM (inactive)"},
      {"measurement": "GI50", "setting": "MDA-MB-435", "value": "> 100 µM (inactive)"},
      {"measurement": "GI50", "setting": "MCF7", "value": "> 100 µM (inactive)"},
      {"measurement": "GI50", "setting": "SNB-19", "value": "> 100 µM (inactive)"},
      {"measurement": "GI50", "setting": "MDA-N", "value": "> 100 µM (inactive)"},
      {"measurement": "GI50", "setting": "SK-MEL-5", "value": "> 100 µM (inactive)"},
      {"measurement": "GI50", "setting": "HCT-15", "value": "> 100", "unit": "µM"},
      {"measurement": "GI50", "setting": "OVCAR-5", "value": "> 100 µM (inactive)"},
      {"measurement": "GI50", "setting": "OVCAR-3", "value": "> 100 µM (inactive)"},
      {"measurement": "GI50", "setting": "SK-MEL-28", "value": "> 100 µM (inactive)"},
      {"measurement": "GI50", "setting": "IGROV-1", "value": "> 100 µM (inactive)"},
      {"measurement": "GI50", "setting": "NCI-H522", "value": "> 100 µM (inactive)"},
      {"measurement": "GI50", "setting": "NCI-H23", "value": "> 100 µM (inactive)"},
      {"measurement": "GI50", "setting": "MDA-MB-231", "value": "> 100 µM (inactive)"},
      {"measurement": "GI50", "setting": "A549", "value": "> 100 µM (inactive)"},
      {"measurement": "GI50", "setting": "T47D", "value": "> 100 µM (inactive)"},
      {"measurement": "GI50", "setting": "COLO 205", "value": "> 100 µM (inactive)"},
      {"measurement": "GI50", "setting": "CCRF-CEM", "value": "97.5 µM (inactive)"},
      {"measurement": "GI50", "setting": "MOLT-4", "value": "73.6 µM (inactive)"},
      {"measurement": "GI50", "setting": "OVCAR-8", "value": "> 100 µM (inactive)"},
      {"measurement": "GI50", "setting": "SK-MEL-2", "value": "> 100 µM (inactive)"},
      {"measurement": "GI50", "setting": "SW-620", "value": "> 100 µM (inactive)"},
      {"measurement": "GI50", "setting": "HCT-116", "value": "> 100 µM (inactive)"},
      {"measurement": "GI50", "setting": "HCC 2998", "value": "> 100 µM (inactive)"},
      {"measurement": "GI50", "setting": "SF-539", "value": "> 100 µM (inactive)"},
      {"measurement": "GI50", "setting": "HL-60", "value": "68.9 µM (inactive)"},
      {"measurement": "GI50", "setting": "M14", "value": "> 100 µM (inactive)"},
      {"measurement": "GI50", "setting": "RXF 393", "value": "> 100 µM (inactive)"},
      {"measurement": "GI50", "setting": "UACC-257", "value": "> 100 µM (inactive)"},
      {"measurement": "GI50", "setting": "NCI-H460", "value": "> 100 µM (inactive)"},
      {"measurement": "GI50", "setting": "PC-3", "value": "> 100 µM (inactive)"},
      {"measurement": "GI50", "setting": "HOP-92", "value": "> 100 µM (inactive)"},
      {"measurement": "GI50", "setting": "U-251", "value": "> 100 µM (inactive)"},
      {"measurement": "GI50", "setting": "KM12", "value": "> 100 µM (inactive)"},
      {"measurement": "GI50", "setting": "OVCAR-4", "value": "> 100 µM (inactive)"},
      {"measurement": "GI50", "setting": "SF-295", "value": "> 100 µM (inactive)"},
      {"measurement": "GI50", "setting": "ACHN", "value": "> 100 µM (inactive)"},
      {"measurement": "GI50", "setting": "Hs-578T", "value": "> 100 µM (inactive)"},
      {"measurement": "GI50", "setting": "SN12C", "value": "> 100 µM (inactive)"},
      {"measurement": "GI50", "setting": "RPMI-8226", "value": "57.8 µM (inactive)"},
      {"measurement": "GI50", "setting": "HOP-62", "value": "> 100 µM (inactive)"},
      {"measurement": "GI50", "setting": "SF-268", "value": "> 100 µM (inactive)"},
      {"measurement": "GI50", "setting": "EKVX", "value": "> 100 µM (inactive)"},
      {"measurement": "GI50", "setting": "NCI/ADR-RES", "value": "> 100 µM (inactive)"},
      {"measurement": "GI50", "setting": "NCI-H226", "value": "> 100 µM (inactive)"},
      {"measurement": "GI50", "setting": "LOX IMVI", "value": "> 100 µM (inactive)"},
      {"measurement": "GI50", "setting": "A498", "value": "> 100 µM (inactive)"}
    ]}
  ]
}
